Consider twelve compounds from patent publication US10821115B2, “Compounds that inhibit Mcl-1 protein” (priority 2017, dated 2020).

Experiment [1] addresses recombinant human Mcl-1 (residues 171-327) / Bim interaction (Homo sapiens (Human), UniProt Q07820). The experiment can be described thus: biochemical. To be noted: read-out: Mcl-1 HTRF IC50. The format is binding.
Experiment [2] concerns human multiple myeloma cell line, OPM-2. The experiment can be described thus: Cell viability assay (OPM-2 10 FBS), CellTiter-Glo. It counts as cell-based. Summed up:
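Serially diluted test compounds are incubated 16 h with cells (3000/well) in RPMI 1640 supplemented with 10% FBS. Viability is then measured by luminescence and IC50 calculated by 4-parameter logistic fit.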
On the technique in general: In ATP-based viability assays light output follows the ATP content of the culture.

Setting [3] is: TR-FRET, Mcl-1(171-327) / biotin-Bim (51-76).
Where [4] appears, read: Homo sapiens, OPM-2, 16 h, read-out: OPM-2 10% FBS IC50 IP, OPM-2 cells, 10% FBS, 16 h, CellTiter-Glo.
[5] abbreviates: 0.1 nM Mcl-1(171-327), 0.05 nM biotin-Bim (51-76).
Where [6] appears, read: Homo sapiens, OPM-2, 16 h, read-out: OPM-2 10% FBS IC50 IP, OPM-2 cells, 10% FBS, 16 h incubation.

Like-named read-outs stand apart in the source and are kept apart here.

recombinant human Mcl-1 (residues 171-327) / Bim interaction, sequence (Q07820 171-327): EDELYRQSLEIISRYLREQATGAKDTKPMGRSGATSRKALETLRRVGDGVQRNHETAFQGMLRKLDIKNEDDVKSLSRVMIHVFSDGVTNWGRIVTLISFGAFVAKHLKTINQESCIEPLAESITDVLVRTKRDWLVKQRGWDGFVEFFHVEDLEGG

Usually IC50 stands for the concentration that gives 50% inhibition. Turning to `CO[C@@]1(CC=O)/C=C/C[C@H](C)[C@@H](C)S(=O)(=O)NC(=O)c2ccc3c(c2)N(C[C@@H]2CC[C@H]21)C[C@@]1(CCCc2cc(Cl)ccc21)CO3` [Example 100323, ((1S,3′R,6′R,7′S,8′E,11′S,12′R)-6-chloro-7′-methoxy-11′,12′-dimethyl-13′,13′-dioxido-15′-oxo-3,4-dihydro-2H-spiro[naphthalene-1,22′-[20]oxa[13]thia[1,14]diazatetracyclo [14.7.2.0~3,6~.0~19,24~]pentacosa[8,16,18,24]tetraen]-7′-yl)acetaldehyde], the IC50 amounted to 0.477 nM in experiment [1] (setting [3]) and 1250 nM in experiment [2] (setting [4]).
Take `COC(=O)CN1CCN(C[C@]2(OC)/C=C/C[C@H](C)[C@@H](C)S(=O)(=O)NC(=O)c3ccc4c(c3)N(C[C@@H]3CC[C@H]32)C[C@@]2(CCCc3cc(Cl)ccc32)CO4)CC1` [Example 269, methyl (4-(((1S,3′R,6′R,7′S,8′E,11′S,12′R)-6-chloro-7′-methoxy-11′,12′-dimethyl-13′,13′-dioxido-15′-oxo-3,4-dihydro-2H-spiro[naphthalene-1,22′-[20]oxa[13]thia[1,14]diazatetracyclo[14.7.2.0-3,6˜.0˜19,24˜]pentacosa[8,16,18,24]tetraen]-7′-yl)methyl)-1-piperazinyl)acetate]: the IC50 in experiment [1] (setting [5]) was determined as 0.104 nM; in experiment [2] (setting [6]) it was 86 nM.
Consider `C[C@@H]1[C@@H](C)C/C=C/[C@](O)(CC(=O)N2CCC2)[C@@H]2CC[C@H]2CN2C[C@@]3(CCCc4cc(Cl)ccc43)COc3ccc(cc32)C(=O)NS1(=O)=O` [Example 100292, (1S,3′R,6′R,7′R,8′E,11′S,12′R)-7′-(2-(1-azetidinyl)-2-oxoethyl)-6-chloro-7′-hydroxy-11′,12′-dimethyl-3,4-dihydro-2H,15′H-spiro[naphthalene-1,22′-[20]oxa[13]thia[1,14]diazatetracyclo [14.7.2.0~3,6~.0~19,24~]pentacosa[8,16,18,24]tetraen]-15′-one 13′,13′-dioxide], for which the IC50 came out at 0.115 nM in experiment [1] (setting [3]) and 672 nM in experiment [2] (setting [4]).
For the compound `Cc1nc([C@]2(O)/C=C/C[C@H](C)[C@@H](C)S(=O)(=O)NC(=O)c3ccc4c(c3)N(C[C@@H]3CC[C@H]32)C[C@@]2(CCCc3cc(Cl)ccc32)CO4)cs1` [Example 100516, (1S,3′R,6′R,7′S,8′E,11′S,12′R)-6-chloro-7′-hydroxy-11′,12′-dimethyl-7′-(2-methyl-1,3-thiazol-4-yl)-3,4-dihydro-2H,15′H-spiro[naphthalene-1,22′-[20]oxa[13]thia[1,14]diazatetracyclo [14.7.2.0~3,6~.0~19,24~]pentacosa[8,16,18,24]tetraen]-15′-one 13′,13′-dioxide], the half-inhibitory concentration (IC50) in experiment [1] (setting [3]) amounted to 3.36 nM; in experiment [2] (setting [4]), 1900 nM.
Consider `C[C@@H]1[C@@H](C)C/C=C/[C@@](O)(c2ccccn2)[C@@H]2CC[C@H]2CN2C[C@@]3(CCCc4cc(Cl)ccc43)COc3ccc(cc32)C(=O)NS1(=O)=O` (single isomer, unassigned) [Example 100181], for which the half-maximal inhibitory concentration (IC50) in experiment [1] (setting [3]) came to 0.537 nM; in experiment [2] (setting [4]), 226 nM.
As for `C[C@@H]1[C@@H](C)C/C=C/[C@@](O)(CN2CCN3CCCC[C@@H]3C2)[C@@H]2CC[C@H]2CN2C[C@@]3(CCCc4cc(Cl)ccc43)COc3ccc(cc32)C(=O)NS1(=O)=O` (racemic) [Example 236], the concentration for half-maximal inhibition (IC50) in experiment [1] (setting [5]) came to 0.097 nM; in experiment [2] (setting [6]), 87 nM.
As to `CO[C@]1(CCN(C)C)/C=C/C[C@H](C)[C@@H](C)S(=O)(=O)NC(=O)c2ccc3c(c2)N(C[C@@H]2CC[C@H]21)C[C@@]1(CCCc2cc(Cl)ccc21)CO3` [Example 100381, (1S,3′R,6′R,7′R,8′E,11′S,12′R)-6-chloro-7′-(2-(dimethylamino)ethyl)-7′-methoxy-11′,12′-dimethyl-3,4-dihydro-2H,15′H-spiro[naphthalene-1,22′-[20]oxa[13]thia[1,14]diazatetracyclo [14.7.2.0~3,6~.0~19,24~]pentacosa[8,16,18,24]tetraen]-15′-one 13′,13′-dioxide], the concentration for half-maximal inhibition (IC50) in experiment [1] (setting [3]) was found to be 0.328 nM; in experiment [2] (setting [4]), 2910 nM.
Take `COCC(C)(C)N1CCN(C[C@]2(OC)/C=C/C[C@H](C)[C@@H](C)S(=O)(=O)NC(=O)c3ccc4c(c3)N(C[C@@H]3CC[C@H]32)C[C@@]2(CCCc3cc(Cl)ccc32)CO4)CC1` [Example 297, (1S,3′R,6′R,7′S,8′E,11′S,12′R)-6-chloro-7′-methoxy-7′-((4-(2-methoxy-1,1-dimethylethyl)-1-piperazinyl)methyl)-11′,12′-dimethyl-3,4-dihydro-2H,15′H-spiro[naphthalene-1,22′-[20]oxa[13]thia[1,14]diazatetracyclo [14.7.2.0~3,6~.0~19,24~]pentacosa[8,16,18,24]tetraen]-15′-one 13′,13′-dioxide]: the IC50 is 0.128 nM in experiment [1] (setting [5]) and 66 nM in experiment [2] (setting [6]).
With `C[C@@H]1[C@@H](C)CCC[C@](O)(c2nccn2C)[C@@H]2CC[C@H]2CN2C[C@@]3(CCCc4cc(Cl)ccc43)COc3ccc(cc32)C(=O)NS1(=O)=O` [Example 100223, (1S,3′R,6′R,7′R,11′S,12′R)-6-chloro-7′-hydroxy-11′,12′-dimethyl-7′-(1-methyl-1H-imidazol-2-yl)-3,4-dihydro-2H,15′H-spiro[naphthalene-1,22′-[20]oxa[13]thia[1,14]diazatetracyclo [14.7.2.0~3,6~.0~19,24~]pentacosa[16,18,24]trien]-15′-one 13′,13′-dioxide], the results for the half-inhibitory concentration (IC50) in experiment [1] (setting [3]) and in experiment [2] (setting [4]) were 1.41 nM and 2150 nM, respectively.
Take `C[C@@H]1[C@@H](C)C/C=C/[C@@](O)([C@@H]2CCN(C)C2=O)[C@@H]2CC[C@H]2CN2C[C@@]3(CCCc4cc(Cl)ccc43)COc3ccc(cc32)C(=O)NS1(=O)=O` [Example 100106, (1S,3′R,6′R,7′S,8′E,11′S,12′R)-6-chloro-7′-hydroxy-11′,12′-dimethyl-7′-((3S)-1-methyl-2-oxo-3-pyrrolidinyl)-3,4-dihydro-2H,15′H-spiro[naphthalene-1,22′-[20]oxa[13]thia[1,14]diazatetracyclo [14.7.2.0~3,6~.0~19,24~]pentacosa[8,16,18,24]tetraen]-15′-one 13′,13′-dioxide]: the IC50 in experiment [1] (setting [3]) came to 0.143 nM; in experiment [2] (read-out: OPM-2 10% FBS IC50 IP, OPM-2 cells, 10% FBS, 16 h, CellTiter-Glo) it was 121 nM.
With `CO[C@@]1(Cc2nc(CO)c(C)o2)/C=C/C[C@H](C)[C@@H](C)S(=O)(=O)NC(=O)c2ccc3c(c2)N(C[C@@H]2CC[C@H]21)C[C@@]1(CCCc2cc(Cl)ccc21)CO3` [Example 100584, (1S,3′R,6′R,7′S,8′E,11′S,12′R)-6-chloro-7′-((4-(hydroxymethyl)-5-methyl-1,3-oxazol-2-yl)methyl)-7′-methoxy-11′,12′-dimethyl-3,4-dihydro-2H,15′H-spiro[naphthalene-1,22′-[20]oxa[13]thia[1,14]diazatetracyclo [14.7.2.0~3,6~.0~19,24~]pentacosa[8,16,18,24]tetraen]-15′-one 13′,13′-dioxide], the IC50 in experiment [1] (setting [3]) came to 0.139 nM; in experiment [2] (setting [4]) it was 349 nM.
In the case of `C#C[C@]1(OCCN2CCOCC2)/C=C/C[C@H](C)[C@@H](C)S(=O)(=O)NC(=O)c2ccc3c(c2)N(C[C@@H]2CC[C@H]21)C[C@@]1(CCCc2cc(Cl)ccc21)CO3` [Example 100504, (1S,3′R,6′R,7′S,8′E,11′S,12′R)-6-chloro-7′-ethynyl-11′,12′-dimethyl-7′-(2-(4-morpholinyl)ethoxy)-3,4-dihydro-2H,15′H-spiro[naphthalene-1,22′-[20]oxa[13]thia[1,14]diazatetracyclo [14.7.2.0~3,6~.0~19,24~]pentacosa[8,16,18,24]tetraen]-15′-one 13′,13′-dioxide], the results for the 50% inhibitory concentration (IC50) in experiment [1] (setting [3]) and in experiment [2] (setting [4]) were 0.803 nM and 1890 nM, respectively.
